From patent US20260224548A1 (priority 2022, published 2026)
Where two headings read alike, the source gives them in different places.

Columns and labels:
HsEH = target: T1, HsEH (Homo sapiens, UniProt P34913); assay: biochemical; format: biochemical
T1 sequence (P34913 1-555): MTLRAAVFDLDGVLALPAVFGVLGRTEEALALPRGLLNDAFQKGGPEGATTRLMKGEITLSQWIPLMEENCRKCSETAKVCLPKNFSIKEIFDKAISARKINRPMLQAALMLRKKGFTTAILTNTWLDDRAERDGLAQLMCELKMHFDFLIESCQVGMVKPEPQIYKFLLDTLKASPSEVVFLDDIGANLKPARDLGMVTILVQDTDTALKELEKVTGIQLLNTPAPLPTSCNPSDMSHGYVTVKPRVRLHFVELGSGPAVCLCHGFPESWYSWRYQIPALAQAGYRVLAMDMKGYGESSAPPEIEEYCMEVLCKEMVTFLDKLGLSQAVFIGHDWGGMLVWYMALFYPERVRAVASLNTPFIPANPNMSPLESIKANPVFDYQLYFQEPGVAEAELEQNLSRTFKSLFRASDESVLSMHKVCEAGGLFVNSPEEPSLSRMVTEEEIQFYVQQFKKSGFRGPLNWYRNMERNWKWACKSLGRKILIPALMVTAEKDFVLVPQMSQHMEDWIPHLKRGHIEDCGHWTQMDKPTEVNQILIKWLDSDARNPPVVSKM
Excerpt: (§1) Detection principle: a specific substrate, (3-phenyl-oxy)-acetic acid cyano-(6-methoxy-naphthalen-2-yl)methyl ester, namely PHOME, is non-fluorescent but can be hydrolyzed under the action of sEH enzyme to generate a product 6-methoxy-2-naphthaldehyde. The 6-methoxy-2-naphthaldehyde can emit fluorescence with a wavelength of 465 nm under 330 nm light wave excitation, and an intensity of the detected fluorescence signal is inversely proportional to an inhibitory effect on the sEH enzyme. Based on the above principle, the inhibition rates of samples with different concentrations were calculated compared with the positive control group. The IC50 value of the compound was calculated based on the inhibition rate and concentration using SPSS 20 software.
(§2) 25 mM Tris-HCl buffer (pH=7.4, containing 0.1 mg/mL BSA): […] BAS was added to 12.5 mL of 1 M Tris-HCl buffer, followed by diluting with purified water, and a resulting mixture was adjusted to a pH value of 7.4 with hydrochloric acid, and diluted to 500 mL.
(§3) PHOME solution: 0.79 mg PHOME was dissolved in 106 μL DMSO to obtain a 20 mM PHOME solution, which was diluted to ⅓ mM with Tris-HCl buffer before use.
(§4) sEH solution: sEH (5 mg/mL) stock solution was stored in a refrigerator at −80° C. and diluted to 4 μg/mL with 25 mM Tris-HCl buffer before use.
(§5) A sample powder to be tested was dissolved in DMSO to a 20 mM solution, stored in a refrigerator at −20° C. for later use, and diluted with Tris-HCl buffer to corresponding concentrations when used.
(§6) Experimental design: solvent group, 100% activity group (A), inhibitor group (B), positive control group (C), as shown in Table 1.
(§7) Three replicate wells were set for each sample, and the average value of the three replicate wells was the fluorescence value (F) of the compound to be tested. […] The IC50 value of the compound was calculated based on the inhibition rate and concentration using SPSS 20 software.

MsEH = target: T2, MsEH (Mus musculus, UniProt P34914); assay: sEH inhibitory activity, PHOME fluorescence assay (MsEH); format: biochemical
T2 sequence (P34914 1-554): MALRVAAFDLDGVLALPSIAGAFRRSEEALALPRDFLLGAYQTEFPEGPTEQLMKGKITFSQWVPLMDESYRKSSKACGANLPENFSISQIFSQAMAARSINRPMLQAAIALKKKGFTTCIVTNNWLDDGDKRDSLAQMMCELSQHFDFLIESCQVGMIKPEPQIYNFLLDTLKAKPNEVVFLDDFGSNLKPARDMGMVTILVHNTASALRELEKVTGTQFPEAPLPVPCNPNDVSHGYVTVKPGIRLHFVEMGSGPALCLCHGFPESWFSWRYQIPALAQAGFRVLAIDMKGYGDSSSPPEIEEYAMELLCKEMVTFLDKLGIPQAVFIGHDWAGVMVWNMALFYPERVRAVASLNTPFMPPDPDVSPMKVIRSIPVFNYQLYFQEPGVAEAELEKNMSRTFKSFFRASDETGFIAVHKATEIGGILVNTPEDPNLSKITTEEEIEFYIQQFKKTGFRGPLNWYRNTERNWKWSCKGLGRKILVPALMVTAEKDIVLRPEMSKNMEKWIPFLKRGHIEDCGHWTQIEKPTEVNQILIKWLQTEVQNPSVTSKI
Excerpt: as §1, §2, §3, §4, §5, §6, §7

[1] = PHOME substrate 50 μM, sEH 400 ng/ml, 37° C., 10 min, fluorescence 330/465 nm, read-out: HsEH IC50 (nM) Inhibitory activity against HsEH
[2] = PHOME substrate 50 μM, sEH 400 ng/ml, 37° C., 10 min, fluorescence 330/465 nm, read-out: MsEH IC50 (nM) Inhibitory activity against MsEH

Row | Compound | IC50 (HsEH) [nM] | IC50 (MsEH) [nM] | IC50 (HsEH; [1]) [nM] | IC50 (MsEH; [2]) [nM]
1 | CC(O)CNC(=O)C1CCN(Cc2ccc(NC(=O)NC34CC5CC(C)(CC(C)(C5)C3)C4)c(F)c2)CC1 (stereo not shown) [CL-120, 1-(4-(3-((1r,7r)-3,5-dimethyladamantan-1-yl)ureido)-3-fluorobenzyl)-N-(2-hydroxypropyl) piperidine-4-carboxamide] | 6 | 0.47 |  | 
2 | 1-((1r,3R,5S,7S)-3,5-dimethyladamantan-1-yl)-3-(2-fluoro-4-(((3S)-3-(4-(2-methylbutanoyl)-1,4-diaza-1-carbonyl) piperidin-1-yl)methyl)phenyl) urea [CL-103] |  |  | 0.25 | 0.62
3 | C[C@]12CC3CC(NC(=O)Nc4ccc(C(=O)NC5CCC(C(=O)N6CCN(CCO)CC6)CC5)cc4F)(C1)C[C@@](C)(C3)C2 (stereo partly shown) [ZT-117] |  |  | 16 | 0.53
4 | methyl 4-(2-(4-(4-(3-((1r,3R,5S,7r)-3,5-dimethyladamantan-1-yl) ureido)-3-fluorobenzyl)-1,4-diaza-1-yl)-2-oxoethyl) piperidine-1-carboxylate [GL-4] |  |  | 1.1 | 0.41
5 | CC12CC3CC(C)(C1)CC(NC(=O)Nc1ccc(C(=O)N[C@H]4CC[C@H](C(N)=O)CC4)cc1F)(C3)C2 [ZT-113, N-((1r,4R)-4-carbamoylcyclohexyl)-4-(3-((1r,3R,5S,7r)-3,5-dimethyladamantan-1-yl)ureido)-3-fluorobenzamide] |  | 0.35 | 0.84 | 
6 | CC12CC3CC(C)(C1)CC(NC(=O)Nc1ccc(CN4CCC[C@H](C(=O)N5CCCN(C(=O)C6CC6)CC5)C4)cc1F)(C3)C2 [CL-204] |  | 0.8 | 0.42 | 
7 | CC(O)CNC(=O)C1CCN(C(=O)c2ccc(NC(=O)NC34CC5CC(C)(CC(C)(C5)C3)C4)c(F)c2)CC1 [CC-115, 1-(4-(3-((1r,3R,5S,7r)-3,5-dimethyladamantan-1-yl)ureido)-3-fluorobenzoyl)-N-(2-hydroxypropyl) piperidine-4-carboxamide] |  | 0.18 | 4.5 | 
8 | CC(=O)N1CCCN(C(=O)[C@H]2CCCN(C(=O)c3ccc(NC(=O)NC45CC6CC(C)(CC(C)(C6)C4)C5)c(F)c3)C2)CC1 [GL-101, 1-(4-((S)-3-(4-acetyl-1,4-diaza-1-carbonyl)piperidine-1-carbonyl)-2-fluorophenyl)-3-((1r,3R,5S,7S)-3,5-dimethyladamantan-1-yl) urea] | 0.6 | 0.26 |  | 
9 | CC12CC3CC(C)(C1)CC(NC(=O)Nc1ccc(C(=O)N[C@H]4CC[C@H](C(=O)NCCO)CC4)cc1F)(C3)C2 [ZT-110, 4-(3-((1r,3R,5S,7r)-3,5-dimethyladamantan-1-yl)ureido)-3-fluoro-N-((1r,4R)-4-((2-hydroxyethyl)carbamoyl)cyclohexyl)benzamide] | 0.8 | 0.18 |  | 
10 | CC12CC3CC(C)(C1)CC(NC(=O)Nc1ccc(C(=O)N4CCC(C(=O)N5CCN(CCO)CC5)CC4)cc1F)(C3)C2 [CC-112, 1-((1r,3R,5S,7r)-3,5-dimethyladamantan-1-yl)-3-(2-fluoro-4-(4-(4-(2-hydroxyethyl)piperazine-1-carbonyl)piperidine-1-carbonyl)phenyl) urea] | 12.5 | 0.32 |  | 
11 | CC12CC3CC(C)(C1)CC(NC(=O)Nc1ccc(C(=O)N[C@H]4CC[C@H](C(=O)NC(CO)(CO)CO)CC4)cc1F)(C3)C2 [ZT-115, N-((1r,4R)-4-((1,3-dihydroxy-2-(hydroxymethyl)propan-2-yl)carbamoyl)cyclohexyl)-4-(3-((1r,3R,5S,7r)-3,5-dimethyladamantan-1-yl)ureido)-3-fluorobenzamide] |  | 0.12 | 0.35 | 
12 | CC12CC3CC(C)(C1)CC(NC(=O)Nc1ccc(C(=O)N4CCC[C@H](C(=O)NCCO)C4)cc1F)(C3)C2 [CC-120, (S)-1-(4-(3-((1r,3R,5S,7S)-3,5-dimethyladamantan-1-yl)ureido)-3-fluorobenzoyl)-N-(2-hydroxyethyl) piperidine-3-carboxamide] |  | 0.15 | 0.35 | 
13 | CC12CC3CC(C)(C1)CC(NC(=O)Nc1ccc(CN4CCC(C(=O)NC(CO)(CO)CO)CC4)cc1F)(C3)C2 [CL-117, N-(1,3-dihydroxy-2-(hydroxymethyl)propan-2-yl)-1-(4-(3-((1r,7r)-3,5-dimethyladamantan-1-yl)ureido)-3-fluorobenzyl) piperidine-4-carboxamide] |  | 0.12 | 6.51 | 
14 | CN(C)CCN1CCC(CC(=O)N2CCCN(Cc3ccc(NC(=O)NC45CC6CC(C)(CC(C)(C6)C4)C5)c(F)c3)CC2)CC1 [GL-23, 1-((1r,3R,5S,7r)-3,5-dimethyladamantan-1-yl)-3-(4-((4-(2-(1-(2-(dimethylamino)ethyl)piperidin-4-yl)acetyl)-1,4-diaza-1-yl)methyl)-2-fluorophenyl) urea] |  | 0.67 | 2.59 | 
15 | CC12CC3CC(C)(C1)CC(NC(=O)Nc1ccc(CN4CCC(C(=O)NC(CO)CO)CC4)cc1F)(C3)C2 [CL-119, N-(1,3-dihydroxypropan-2-yl)-1-(4-(3-((1r,7r)-3,5-dimethyladamantan-1-yl)ureido)-3-fluorobenzyl) piperidine-4-carboxamide] | 31.6 | 2.25 |  | 
16 | CC12CC3CC(C)(C1)CC(NC(=O)Nc1ccc(CN4CCC[C@H](C(=O)N5CCN(CCO)CC5)C4)cc1F)(C3)C2 [CL-116, 1-((1r,3R,5S,7S)-3,5-dimethyladamantan-1-yl)-3-(2-fluoro-4-(((S)-3-(4-(2-hydroxyethyl)piperazine-1-carbonyl)piperidin-1-yl)methyl)phenyl) urea] |  | 0.55 | 0.98 | 
17 | 1-((1r,3R,5S,7S)-3,5-dimethyladamantan-1-yl)-3-(2-fluoro-4-(((S)-3-(4-propionyl-1,4-)diaza-1-carbonyl) piperidin-1-yl)methyl)phenyl) urea [CL-102] |  |  | 0.05 | 0.14
18 | CCC(=O)N1CCC(CC(=O)N2CCCN(C(=O)c3ccc(NC(=O)NC45CC6CC(C)(CC(C)(C6)C4)C5)c(F)c3)CC2)CC1 [CC-105, 1-((1r,3R,5S, 7r)-3,5-dimethyladamantan-1-yl)-3-(2-fluoro-4-(4-(2-(1-propionylpiperidin-4-yl)acetyl)-1,4-diaza-1-carbonyl)phenyl) urea] | 0.9 | 0.39 |  | 
19 | CC(CN(C)C)N1CCC(CC(=O)N2CCCN(C(=O)c3ccc(NC(=O)NC45CC6CC(C)(CC(C)(C6)C4)C5)c(F)c3)CC2)CC1 [CC-124, 1-((1r,3R,5S,7r)-3,5-dimethyladamantan-1-yl)-3-(4-(4-(2-(1-(1-(dimethylamino)propan-2-yl)piperidin-4-yl)acetyl)-1,4-diaza-1-carbonyl)-2-fluorophenyl) urea] |  | 0.8 | 19.6 | 
20 | CC12CC3CC(C)(C1)CC(NC(=O)Nc1ccc(C(=O)N4CCC(C(=O)NC(CO)CO)CC4)cc1F)(C3)C2 [CC-116, N-(1,3-dihydroxypropan-2-yl)-1-(4-(3-((1r,3R,5S, 7r)-3,5-dimethyladamantan-1-yl)ureido)-3-fluorobenzoyl) piperidine-4-carboxamide] |  |  | 7.1 | 0.55
